pEC50: −log10 of the molar value.
Key:
KCNQ2/3 channels = target: T1, KCNQ2/3 channels (Homo sapiens, UniProt O43525+O43526); experiment: Fluorescence assay using a voltage sensitive dye (fluorimetry); format: cell-based; settings: CHO-K1 cells expressing KCNQ2/3 channels; for pEC50: agonistic activity; for Emax: relative to retigabine = 100%, read-out: Fluorimetry % efficacy (retigabine = 100%)
T1 construct: expressed in transfected cells
Description: Fluorescence Assay using a Voltage Sensitive Dye
Human CHO—K1 cells expressing KCNQ2/3 channels are cultivated adherently at 37° C., 5% CO2 and 95% humidity in cell culture bottles (e.g. 80 cm^2 TC flasks, Nunc) with DMEM-high glucose (Sigma Aldrich, D7777) including 10% FCS (PAN Biotech, e.g. 3302-P270521) or alternatively MEM Alpha Medium (1×, liquid, Invitrogen, #22571), 10% fetal calf serum (FCS) (Invitrogen, #10270-106, heat-inactivated) and the necessary selection antibiotics.
Before being sown out for the measurements, the cells are washed with a 1×DPBS buffer without Ca^2+/Mg^2+ (e.g. Invitrogen, #14190-094) and detached from the bottom of the culture vessel by means of Accutase (PAA Laboratories, #L11-007) (incubation with Accutase for 15 min at 37° C.). The cell count then present is determined using a CASY™ cell counter (TCC model, Schärfe System) in order subsequently to apply, depending on the density optimization for the individual cell line, 20,000-30,000 cells/well/100 μl of the described nutrient medium to 96-well measuring plates of the Corning™ CellBIND™ type (Flat Clear Bottom Black Polystyrene Microplates, #3340). Incubation is then carried out for one hour at room temperature, without gassing or adjusting the humidity, followed by incubation for 24 hours at 37° C., 5% CO2 and 95% humidity.
The voltage-sensitive fluorescent dye from the Membrane Potential Assay Kit (Red™ Bulk format part R8123 for FLIPR, MDS Analytical Technologies™) is prepared by dissolving the contents of a vessel Membrane Potential Assay Kit Red Component A in 200 ml of extracellular buffer (ES buffer, 120 mM NaCl, 1 mM KCl, 10 mM HEPES, 2 mM CaCl2, 2 mM MgCl2, 10 mM glucose; pH 7.4). After removal of the nutrient medium, the cells are washed with 200 μl of ES buffer, then covered with a layer of 100 μl of the dye solution prepared above and incubated for 45 min at room temperature with the exclusion of light.
The fluorescence measurements are carried out with a BMG Labtech FLUOstar™, BMG Labtech NOVOstar™ or BMG Labtech POLARstar™ instrument (525 nm excitation, 560 nm emission, Bottom Read mode). After incubation of the dye, 50 μl of the test substances in the desired concentrations, or 50 μl of ES buffer for control purposes, are introduced into separate cavities of the measuring plate and incubated for 30 min at room temperature while being shielded from light. The fluorescence intensity of the dye is then measured for 5 min and the fluorescence value F1 of each well is thus determined at a given, constant time. 15 μl of a […] KCl solution ([…]) are then added to each well. The change in fluorescence is subsequently measured until all the relevant measured values have been obtained (mainly 5-30 min). At a given time after KCl application, a fluorescence value F2 is determined, in this case at the time of the fluorescence peak.
For calculation, the fluorescence intensity F2 is compared with the fluorescence intensity F1, and the agonistic activity of the target compound on the potassium channel is determined therefrom. F2 and F1 are calculated as follows: […]
In order to determine whether a substance has agonistic activity,
A substance has an agonistic activity on the potassium channel when
[formula] it is possible to conclude that a target compound has agonistic activity if an increase in
Calculations of EC50 values are carried out with the aid of ‘Prism v4.0’ software (GraphPad Software™).

[1] = system: formalin-induced pain behaviour; experiment: Formalin test, mouse (phase 2, chronic pain component); format: in vivo; settings: change in percent compared with vehicle control
Description: Formalin Test, Mouse The formalin test (Dubuisson, D. and Dennis, S. G., 1977, Pain, 4, 161-174) represents a model for both acute and chronic pain. By means of a single formalin injection into the dorsal side of a rear paw, a biphasic nociceptive reaction is induced in freely mobile test animals; the reaction is detected by observing three behaviour patterns which are clearly distinguishable from one another. The reaction is two-phase: phase 1=immediate reaction (duration up to 10 min; shaking of the paw, licking), phase 2=late reaction (after a rest phase; likewise shaking of the paw, licking; duration up to 60 min). The 1st phase reflects a direct stimulation of the peripheral nocisensors with high spinal nociceptive input (acute pain phase); the 2nd phase reflects a spinal and peripheral hypersensitization (chronic pain phase). In the studies described here, the chronic pain component (phase 2) has been evaluated. Formalin in a volume of 20 μl and a concentration of 1% is administered subcutaneously into the dorsal side of the right rear paw of each animal. The specific changes in behaviour, such as lifting, shaking or licking of the paw (score 3, Dubuisson & Dennis, 1977), are observed and recorded in the observation period of 21 to 24 minutes following the formalin injection. The behaviour of the animals after administration of the substance (n=10 per dose of substance) was compared with a control group which received vehicle (n=10). On the basis of the quantification of the pain behaviour, the action of the substance in the formalin test was determined as the change in percent compared with the control. The ED50 calculations (ED50=mean effective dose) were carried out by means of regression analysis according to the method of Litchfield and Wilcoxon (Litchfield, J. T., Wilcoxon, J. J., 1949, J. Pharmacol. Exp. Ther. 96, 99—113). The time of administration of the compound before the formalin injection was chosen as 5 min in the case of intravenous administration and 30 min in the case of oral administration.

Compound	pEC50 (KCNQ2/3 channels)	Emax (KCNQ2/3 channels) [%]	Formalin Test mouse IV effect @ dose [mg/kg] ([1]; 1 mg/kg) [% @ 1]	Formalin Test mouse IV effect @ dose [mg/kg] ([1]; 0.68 mg/kg) [% @ 0.68]
O=C(CC1CCCCC1)Nc1cc2ccccc2nc1SCCS(=O)(=O)c1ccccc1 [Example 1, 2-cyclohexyl-N-(2-(2-(phenylsulfonyl)ethylthio)quinolin-3-yl)acetamide]	6.60	80	–	–
O=C(Cc1cccs1)Nc1cc2ccccc2nc1SCCS(=O)(=O)c1ccccc1 [Example 2, N-(2-(2-(phenylsulfonyl)ethylthio)quinolin-3-yl)-2-(thiophen-2-yl)acetamide]	7.17	80	–	–
O=C(CCC1CCCCC1)Nc1cc2ccccc2nc1SCCS(=O)(=O)c1ccccc1 [Example 3, 3-Cyclohexyl-N-(2-(2-(phenylsulfonyl)ethylthio)quinolin-3-yl)propanamide]	6.76	97	–	–
CCCCCSc1nc2ccccc2cc1NC(=O)Cc1cccs1 [Example 4, N-(2-(pentylthio)quinolin-3-yl)-2-(thiophen-2-yl)acetamide]	6.97	60	–	–
O=C(Cc1cccs1)Nc1cc2ccccc2nc1SCCSc1ccccc1 [Example 6, N-(2-(2-(phenylthio)ethylthio)quinolin-3-yl)-2-(thiophen-2-yl)acetamide]	–	25	–	–
CCSc1nc2ccccc2cc1NC(=O)Cc1cccs1 [Example 7, N-(2-(ethylthio)quinolin-3-yl)-2-(thiophen-2-yl)acetamide]	6.81	93	24	–
CCSc1nc2ccccc2cc1NC(=O)CC(C)(C)C [Example 9, N-(2-(ethylthio)quinolin-3-yl)-3,3-dimethylbutanamide]	6.38	142	–	–
CCSc1nc2cc(C(F)(F)F)ccc2cc1NC(=O)Cc1cccs1 [Example 10, N-[2-Ethylsulfanyl-7-(trifluoromethyl)quinolin-3-yl]-2-thiophen-2-yl-acetamide]	5.94	57	–	–
CCSc1nc2cc(C(F)(F)F)ccc2cc1NC(=O)CC(C)(C)C [Example 11, N-[2-ethylsulfanyl-7-(trifluoromethyl)-quinolin-3-yl]-3,3-dimethyl-butyramide]	–	35	–	–
CCSc1nc2cc(C(F)(F)F)ccc2cc1NC(=O)CCC1CCCC1 [Example 12, 3-cyclopentyl-N-[2-ethylsulfanyl-7-(trifluoromethyl)-quinolin-3-yl]propionamide]	5.30	62	–	–
CCSc1nc2ccccc2cc1NC(=O)CC1CCCCC1 [Example 13, 2-Cyclohexyl-N-(2-ethylsulfanyl-quinolin-3-yl)-acetamide]	6.82	101	–	–
CCSc1nc2ccccc2cc1NC(=O)CC1CC2CCC1C2 (stereo not shown) [Example 14, 2-(5-bicyclo[2.2.1]heptanyl)-N-(2-ethylsulfanyl-quinolin-3-yl)-acetamide]	6.69	179	–	–
CCSc1nc2ccccc2cc1NC(=O)CCC1CCCC1 [Example 15, 3-cyclopentyl-N-(2-ethylsulfanyl-quinolin-3-yl)-propionamide]	7.09	143	17	–
CCSc1nc2cc(C(F)(F)F)ccc2cc1NC(=O)CC1CC2CCC1C2 (stereo not shown) [Example 16, 2-(5-bicyclo[2.2.1]heptanyl)-N-[2-ethylsulfanyl-7-(trifluoromethyl)-quinolin-3-yl]-acetamide]	6.19	66	–	–
CCSc1nc2cc(C(F)(F)F)ccc2c(C)c1NC(=O)CCC1CCCC1 [Example 17, 3-cyclopentyl-N-[2-ethylsulfanyl-4-methyl-7-(trifluoromethyl)-quinolin-3-yl]-propionamide]	7.18	107	–	90
CCSc1nc2cc(C(F)(F)F)ccc2c(C)c1NC(=O)Cc1cccs1 [Example 18, N-[2-ethylsulfanyl-4-methyl-7-(trifluoromethyl)-quinolin-3-yl]-2-thiophen-2-yl-acetamide]	7.03	140	43	–
